Test results published in patent US10980889B1 (Revolution Medicines, Inc., priority 2018, dated 2021).

Experiments:
P-4E-BP1 (T37/46) = assay: Cell based AlphaLISA assay, inhibition of P-4E-BP1 (T37/46) in MDA-MB-468 cells (mTORC1 substrate); details: AlphaLisa, two to four hours at 37° C.; for IC50: Homo sapiens, 4 h, read-out: pIC50 for Inhibition of mTORC1 and mTORC2 Substrate Phosphorylation P-4E-BP1-(T37/46) (converted)
Experimental: (§1) Cell Based AlphaLISA Assays For Determining IC50 For Inhibition of P-Akt (S473), P-4E-BP1(T37/46), and P-P70S6K (T389) in MDA-MB-468 Cells
(§2) mTOR Kinase Cellular Assay
(§3) To measure functional activity of mTORC1 and mTORC2 in cells the phosphorylation of 4EBPT (Thr37/46) and P70S6K (Thr389), and AKT1/2/3 (Ser473) was monitored using AlphaLisa SureFire Ultra Kits (Perkin Elmer). […] Incubations were terminated by removal of the assay buffer and addition of lysis buffer provided with the assay kit. Samples were processed according to the manufacturer's instructions. The Alpha signal from the respective phosphoproteinswas measured in duplicate using a microplate reader (Envision, Perkin-Elmer or Spectramax M5, Molecular Devices). Inhibitor concentration response curves were analyzed using normalized IC50 regression curve filling with control based normalization.

P-Akt (S473) = assay: Cell based AlphaLISA assay, inhibition of P-Akt (S473) in MDA-MB-468 cells (mTORC2 substrate); details: AlphaLisa, two to four hours at 37° C.; for IC50: Homo sapiens, 4 h, read-out: pIC50 for Inhibition of mTORC1 and mTORC2 Substrate Phosphorylation p-AKT1/2/3-(S473) (converted)
Experimental: as §1, §2, §3

P-P70S6K (T389) = assay: Cell based AlphaLISA assay, inhibition of P-P70S6K (T389) in MDA-MB-468 cells (mTORC1 substrate); details: AlphaLisa, two to four hours at 37° C.; for IC50: Homo sapiens, 4 h, read-out: pIC50 for Inhibition of mTORC1 and mTORC2 Substrate Phosphorylation p-P70S6K-(T389) (converted)
Experimental: as §1, §2, §3

Compound	pIC50 for Inhibition of mTORC1 and mTORC2 Substrate Phosphorylation P-4E-BP1-(T37/46) (P-4E-BP1 (T37/46))	pIC50 for Inhibition of mTORC1 and mTORC2 Substrate Phosphorylation p-AKT1/2/3-(S473) (P-Akt (S473))	pIC50 for Inhibition of mTORC1 and mTORC2 Substrate Phosphorylation p-P70S6K-(T389) (P-P70S6K (T389))	IC50 (P-4E-BP1 (T37/46)) [nM]	IC50 (P-Akt (S473)) [nM]	IC50 (P-P70S6K (T389)) [nM]
CO[C@H]1C[C@@H]2CC[C@@H](C)[C@@](O)(O2)C(=O)C(=O)N2CCCC[C@H]2C(=O)O[C@H]([C@H](C)C[C@@H]2CC[C@@H](OC(=S)NCCOCCOCCOCCOCCOCCOCCOCCOCCC(=O)N3CCc4cc(Cn5nc(-c6ccc7oc(N)nc7c6)c6c(N)ncnc65)ccc4C3)[C@H](OC)C2)C[C@@H](O)[C@H](C)/C=C(\C)[C@@H](O)[C@@H](OC)C(=O)[C@H](C)C[C@H](C)/C=C/C=C/C=C/1C [Example 77]	++ (8.5 > pIC50 ≥ 7.5)	+ (7.5 > pIC50 ≥ 6.0)	+++ (≥9)	–	–	–
CO[C@H]1C[C@@H]2CC[C@@H](C)[C@@](O)(O2)C(=O)C(=O)N2CCCC[C@H]2C(=O)O[C@H]([C@H](C)C[C@@H]2CC[C@@H](OC(=S)NCCOCCOCCOCCOCCOCCOCCOCCOCCC(=O)N3CCc4cc(Cn5nc(-c6ccc7oc(N)nc7c6)c6c(N)ncnc65)ccc4C3)[C@H](OC)C2)C[C@@H](OC)[C@H](C)/C=C(\C)[C@@H](O)[C@@H](OC)C(=O)[C@H](C)C[C@H](C)/C=C/C=C/C=C/1C [Example 78]	+++ (≥8.5)	+++ (≥8.5)	+++ (≥9)	–	–	–
CO[C@H]1C[C@@H]2CC[C@@H](C)[C@@](O)(O2)C(=O)C(=O)N2CCCC[C@H]2C(=O)O[C@H]([C@H](C)C[C@@H]2CC[C@@H](OC(=O)NCCOCCOCCOCCOCCOCCOCCOCCOCCC(=O)NCc3ccc(Cn4nc(-c5ccc6oc(N)nc6c5)c5c(N)ncnc54)cc3)[C@H](OC)C2)CC(=O)[C@H](C)/C=C(\C)[C@@H](O)[C@@H](OC)C(=O)[C@H](C)C[C@H](C)/C=C/C=C/C=C/1C [Example 79]	+++ (≥8.5)	+ (7.5 > pIC50 ≥ 6.0)	+++ (≥9)	–	–	–
CO[C@H]1C[C@@H]2CC[C@@H](C)[C@@](O)(O2)C(=O)C(=O)N2CCCC[C@H]2C(=O)O[C@H]([C@H](C)C[C@@H]2CC[C@@H](OC(=O)NCCOCCOCCOCCOCCOCCOCCOCCOCCC(=O)NCc3ccc(Cn4nc(-c5ccc6oc(N)nc6c5)c5c(N)ncnc54)cc3)[C@H](OC)C2)C[C@@H](OC)[C@H](C)/C=C(\C)[C@@H](O)[C@@H](OC)C(=O)[C@H](C)C[C@H](C)/C=C/C=C/C=C/1C [Example 81]	++ (8.5 > pIC50 ≥ 7.5)	− (<6)	+++ (≥9)	–	–	–
CO[C@H]1C[C@@H]2CC[C@@H](C)[C@@](O)(O2)C(=O)C(=O)N2CCCC[C@H]2C(=O)O[C@H]([C@H](C)C[C@@H]2CC[C@@H](OC(=O)NCCOCCOCCOCCOCCOCCOCCOCCOCCC(=O)NCc3ccc(Cn4nc(-c5ccc6oc(N)nc6c5)c5c(N)ncnc54)cc3)[C@H](OC)C2)C[C@H](N=[N+]=[N-])[C@H](C)/C=C(\C)[C@@H](O)[C@@H](OC)C(=O)[C@H](C)C[C@H](C)/C=C/C=C/C=C/1C [Example 82]	+++ (≥8.5)	− (<6)	+++ (≥9)	–	–	–
CO[C@H]1C[C@@H]2CC[C@@H](C)[C@@](O)(O2)C(=O)C(=O)N2CCCC[C@H]2C(=O)O[C@H]([C@H](C)C[C@@H]2CC[C@@H](OC(=S)NCCOCCOCCOCCOCCOCCOCCOCCOCCC(=O)NCc3ccc(Cn4nc(-c5ccc6oc(N)nc6c5)c5c(N)ncnc54)cc3)[C@H](OC)C2)C[C@@H](O)[C@H](C)/C=C(\C)[C@@H](O)[C@@H](OC)C(=O)[C@H](C)C[C@H](C)/C=C/C=C/C=C/1C [Example 83]	+++ (≥8.5)	++ (8.5 > pIC50 ≥ 7.5)	+++ (≥9)	–	–	–
CO[C@H]1C[C@@H]2CC[C@@H](C)[C@@](O)(O2)C(=O)C(=O)N2CCCC[C@H]2C(=O)O[C@H]([C@H](C)C[C@@H]2CC[C@@H](OC(=O)NCc3cnc(N4CCN(c5ncc(C(=O)NCCOCCOCCOCCOCCC(=O)N6CCc7cc(Cn8nc(-c9cnc%10[nH]ccc%10c9)c9c(N)ncnc98)ccc7C6)cn5)CC4CO)nc3)[C@H](OC)C2)CC(=O)[C@H](C)/C=C(\C)[C@@H](O)[C@@H](OC)C(=O)[C@H](C)C[C@H](C)/C=C/C=C/C=C/1C (stereo partly drawn) [Example 86]	–	–	–	< 3.16	3.16 to 31.6	< 1
CO[C@H]1C[C@@H]2CC[C@@H](C)[C@@](O)(O2)C(=O)C(=O)N2CCCC[C@H]2C(=O)O[C@H]([C@H](C)C[C@@H]2CC[C@@H](OC(=O)NCc3cnc(N4CCN(C(=O)CN(C)CC(=O)NCCOCCOCCC(=O)N5CCc6cc(Cn7nc(-c8ccc9oc(N)nc9c8)c8c(N)ncnc87)ccc6C5)CC4)nc3)[C@H](OC)C2)CC(=O)[C@H](C)/C=C(\C)[C@@H](O)[C@@H](OC)C(=O)[C@H](C)C[C@H](C)/C=C/C=C/C=C/1C [Example 87]	–	–	–	< 3.16	3.16 to 31.6	< 1
CO[C@H]1C[C@@H]2CC[C@@H](C)[C@@](O)(O2)C(=O)C(=O)N2CCCC[C@H]2C(=O)O[C@H]([C@H](C)C[C@@H]2CC[C@@H](OC(=O)NCc3cnc(N4CCN(CCOCCOCCOCCOCCC(=O)N5CCc6cc(Cn7nc(-c8ccc9oc(N)nc9c8)c8c(N)ncnc87)ccc6C5)CC4)nc3)[C@H](OC)C2)CC(=O)[C@H](C)/C=C(\C)[C@@H](O)[C@@H](OC)C(=O)[C@H](C)C[C@H](C)/C=C/C=C/C=C/1C [Example 88]	–	–	–	< 3.16	3.16 to 31.6	< 1
CO[C@H]1C[C@@H]2CC[C@@H](C)[C@@](O)(O2)C(=O)C(=O)N2CCCC[C@H]2C(=O)O[C@H]([C@H](C)C[C@@H]2CC[C@@H](OC(=O)NCc3cnc(N4CCN(CCOCCOCCOCCOCCC(=O)N5CCc6cc(Cn7nc(-c8ccc9oc(N)nc9c8)c8c(N)ncnc87)ccc6C5)CC4)nc3)[C@H](OC)C2)C[C@@H](OC)[C@H](C)/C=C(\C)[C@@H](O)[C@@H](OC)C(=O)[C@H](C)C[C@H](C)/C=C/C=C/C=C/1C [Example 89]	–	–	–	< 3.16	> 1000	< 1
CO[C@H]1C[C@@H]2CC[C@@H](C)[C@@](O)(O2)C(=O)C(=O)N2CCCC[C@H]2C(=O)O[C@H]([C@H](C)C[C@@H]2CC[C@@H](OC(=O)NCc3cnc(N4CCN(CCOCCOCCOCCOCCC(=O)NCCCCn5nc(-c6ccc7oc(N)nc7c6)c6c(N)ncnc65)CC4)nc3)[C@H](OC)C2)C[C@@H](OC)[C@H](C)/C=C(\C)[C@@H](O)[C@@H](OC)C(=O)[C@H](C)C[C@H](C)/C=C/C=C/C=C/1C [Example 90]	–	–	–	> 1000	> 1000	< 1
CO[C@H]1C[C@@H]2CC[C@@H](C)[C@@](O)(O2)C(=O)C(=O)N2CCCC[C@H]2C(=O)O[C@H]([C@H](C)C[C@@H]2CC[C@@H](OC(=O)NCc3cnc(N4CCN(C(=O)CN(C)CC(=O)NCCOCCOCCC(=O)N5CCc6cc(Cn7nc(-c8ccc9oc(N)nc9c8)c8c(N)ncnc87)ccc6C5)CC4)nc3)[C@H](OC)C2)C[C@@H](OC)[C@H](C)/C=C(\C)[C@@H](O)[C@@H](OC)C(=O)[C@H](C)C[C@H](C)/C=C/C=C/C=C/1C [Example 91]	–	–	–	< 3.16	3.16 to 31.6	< 1
CO[C@H]1C[C@@H]2CC[C@@H](C)[C@@](O)(O2)C(=O)C(=O)N2CCCCC2C(=O)O[C@H]([C@H](C)C[C@@H]2CC[C@@H](OC(=O)NCc3cnc(N4CCN(C(=O)CN(C)CC(=O)NCCOCCOCCC(=O)NCCCCn5nc(-c6ccc7oc(N)nc7c6)c6c(N)ncnc65)CC4)nc3)[C@H](OC)C2)C[C@@H](OC)[C@H](C)/C=C(\C)[C@@H](O)[C@@H](OC)C(=O)[C@H](C)C[C@H](C)/C=C/C=C/C=C/1C (stereo partly drawn) [Example 92]	–	–	–	< 3.16	3.16 to 31.6	< 1
CO[C@H]1C[C@@H]2CC[C@@H](C)[C@@](O)(O2)C(=O)C(=O)N2CCCC[C@H]2C(=O)O[C@H]([C@H](C)C[C@@H]2CC[C@@H](OC(=O)NCc3cnc(N4CCN(c5ncc(C(=O)NCCOCCOCCOCCOCCC(=O)N6CCc7cc(Cn8nc(-c9ccc%10oc(N)nc%10c9)c9c(N)ncnc98)ccc7C6)c(N)n5)CC4)nc3)[C@H](OC)C2)C[C@@H](OC)[C@H](C)/C=C(\C)[C@@H](O)[C@@H](OC)C(=O)[C@H](C)C[C@H](C)/C=C/C=C/C=C/1C [Example 94]	–	–	–	< 3.16	< 3.16	< 1
CO[C@H]1C[C@@H]2CC[C@@H](C)[C@@](O)(O2)C(=O)C(=O)N2CCCC[C@H]2C(=O)O[C@H]([C@H](C)C[C@@H]2CC[C@@H](OC(=O)NCc3cnc(N4CCN(c5ncc(C(=O)N(C)CCOCCOCCOCCOCCC(=O)N6CCc7cc(Cn8nc(-c9ccc%10oc(N)nc%10c9)c9c(N)ncnc98)ccc7C6)c(N)n5)CC4)nc3)[C@H](OC)C2)C[C@@H](OC)[C@H](C)/C=C(\C)[C@@H](O)[C@@H](OC)C(=O)[C@H](C)C[C@H](C)/C=C/C=C/C=C/1C [Example 95]	–	–	–	< 3.16	3.16 to 31.6	< 1
